≈ marks a conversion by molar mass, not a printed value.

A short description of the data set: physchem. The settings on record: aqueous with cosolvent or surfactant or cyclodextrin.

In turn, `CC1=C(/C=C/C(C)=C/C=C/C(C)=C/C=C/C=C(C)/C=C/C=C(C)/C=C/C2=C(C)CCCC2(C)C)C(C)(C)CCC1` [β-carotene] showed a solubility of approximately 50 µg/mL (≈ 93.1 µM).

The solubility is how much of the substance goes into solution per volume.
